Results on 18 compounds are retold here after publication PMC6268108, “Design, Practical Synthesis, and Biological Evaluation of Novel 6-(Pyrazolylmethyl)-4-quinoline-3-carboxylic Acid Derivatives as HIV-1 Integrase Inhibitors” (Molecules, 2012).

A value given as a limit tells only on which side of the number the result lay.

For one data set, the target named is T1, HIV-1 integrase (Human immunodeficiency virus type 1 group M subtype B, UniProt P04585).
T1 construct: pre-incubated with 800 ng integrase at 37.8 °C in the reaction buffer
Nature of the data set: HIV-1 integrase strand transfer (ST) activity assay. Format: biochemical. Conditions: 1 h; read-out: IC50 (inhibition of strand transfer). How it is done: A HIV-1 integrase strand transfer (ST) activity assay was carried out to test the inhibition effectiveness of our compounds as described previously with some minor modifications. Compounds diluted in DMSO were pre-incubated with 800 ng integrase at 37.8 °C in the reaction buffer in the absence of Mn^2+ for 10 min. Subsequently, 1.5 pmol donor DNA and 9 pmol target DNA were added and the reaction was initiated by the addition of 10 mmol/L Mn^2+ into the final reaction volume. The reactions were carried out at 37.8 °C for 1 h and subsequent detection procedure was applied to detect the assay signals.

Take `Cc1nn(Cc2ccc3[nH]cc(C(=O)O)c(=O)c3c2)c(C)c1Br` [Compound 11c, 6-((4-Bromo-3,5-dimethyl-1H-pyrazol-1-yl)methyl)-4-oxo-1,4-dihydroquinoline-3-carboxylic acid]: the melting point is 253 to 256 °C. Moreover, the inhibition at 100 µg/mL at HIV-1 integrase was under 50%.
`Cc1nn(Cc2ccc3c(c2)c(=O)c(C(=O)O)cn3CC(=O)O)c(C)c1Cl` [Compound 13b, 1-(Carboxymethyl)-6-((4-chloro-3,5-dimethyl-1H-pyrazol-1-yl)methyl)-4-oxo-1,4-dihydroquinoline-3-carboxylic acid] showed a melting point of 292 to 295 °C. Further, on HIV-1 integrase, the inhibition at 100 µg/mL is under 50%.
On the same counts, the results for `Cc1cc(C)n(Cc2ccc3[nH]cc(C(=O)O)c(=O)c3c2)n1` [Compound 11a, 6-((3,5-Dimethyl-1H-pyrazol-1-yl)methyl)-4-oxo-1,4-dihydroquinoline-3-carboxylic acid] are 254 to 256 °C and under 50%.
`Cc1cc(C)n(Cc2ccc3c(c2)c(=O)c(C(=O)O)cn3Cc2ccc([N+](=O)[O-])cc2)n1` [Compound 16a, 1-(4-Nitrobenzyl)-6-((3,5-dimethyl-1H-pyrazol-1-yl)methyl)-4-oxo-1,4-dihydro-quinoline-3-carboxylic acid] yielded a melting point of 274 to 276 °C. The inhibition at 100 µg/mL at HIV-1 integrase was under 50%.
In turn, `Cc1nn(Cc2ccc3c(c2)c(=O)c(C(=O)O)cn3CCCS)c(C)c1Cl` [Compound 14b, 1-(3-Mercaptopropyl)-6-((4-chloro-3,5-dimethyl-1H-pyrazol-1-yl)methyl)-4-oxo-1,4-dihydro-quinoline-3-carboxylic acid] had a melting point of 238 to 240 °C. For the same compound, the inhibition at 100 µg/mL at HIV-1 integrase was under 50%.
On the same counts, the results for `Cc1cc(C)n(Cc2ccc3c(c2)c(=O)c(C(=O)O)cn3CC(=O)O)n1` [Compound 13a, 1-(Carboxymethyl)-6-((3,5-dimethyl-1H-pyrazol-1-yl)methyl)-4-oxo-1,4-dihydroquinoline-3-carboxylic acid] are over 300 °C and under 50%.
`Cc1nn(Cc2ccc3c(c2)c(=O)c(C(=O)O)cn3Cc2ccc([N+](=O)[O-])cc2)c(C)c1Cl` [Compound 16b, 1-(4-Nitrobenzyl)-6-((4-chloro-3,5-dimethyl-1H-pyrazol-1-yl)methyl)-4-oxo-1,4-dihydroquinoline-3-carboxylic acid] returned a melting point of 282 to 284 °C. Moreover, the inhibition at 100 µg/mL on HIV-1 integrase was under 50%.
Compound `Cc1nn(Cc2ccc3c(c2)c(=O)c(C(=O)O)cn3CCCS)c(C)c1Br` [Compound 14c, 6-((4-Bromo-3,5-dimethyl-1H-pyrazol-1-yl)methyl)-1-(3-mercaptopropyl)-4-oxo-1,4-dihydroquinoline-3-carboxylic acid] came in with a melting point of 231 to 233 °C. For the same compound, the inhibition at 100 µg/mL on HIV-1 integrase was under 50%.
Turning to `Cc1nn(Cc2ccc3c(c2)c(=O)c(C(=O)O)cn3CC(O)CO)c(C)c1Br` (stereo not drawn) [Compound 12c, 1-(2,3-Dihydroxypropyl)-6-((4-bromo-3,5-dimethyl-1H-pyrazol-1-yl)methyl)-4-oxo-1,4-dihydroquino-line-3-carboxylic acid], the melting point is 267 to 269 °C. The inhibition at 100 µg/mL at HIV-1 integrase is under 50%.
On the same counts, the results for `Cc1nn(Cc2ccc3c(c2)c(=O)c(C(=O)O)cn3CC(O)CO)c(C)c1Cl` (stereo not drawn) [Compound 12b, 1-(2,3-Dihydroxypropyl)-6-((4-chloro-3,5-dimethyl-1H-pyrazol-1-yl)methyl)-4-oxo-1,4-dihydro-quinoline-3-carboxylic acid] are 278 to 280 °C and under 50%.
In turn, `Cc1cc(C)n(Cc2ccc3c(c2)c(=O)c(C(=O)O)cn3CCCS)n1` [Compound 14a, 1-(3-Mercaptopropyl)-6-((3,5-dimethyl-1H-pyrazol-1-yl)methyl)-4-oxo-1,4-dihydroquinoline-3-carboxylic acid] displayed a melting point of 225 to 226 °C. The inhibition at 100 µg/mL at HIV-1 integrase is under 50%.
On the same counts, the results for `Cc1nn(Cc2ccc3c(c2)c(=O)c(C(=O)O)cn3Cc2ccc(F)cc2)c(C)c1Cl` [Compound 15b, 1-(4-Fluorobenzyl)-6-((4-chloro-3,5-dimethyl-1H-pyrazol-1-yl)methyl)-4-oxo-1,4-dihydro-quinoline-3-carboxylic acid] are 239 to 241 °C and under 50%.
`Cc1nn(Cc2ccc3c(c2)c(=O)c(C(=O)O)cn3Cc2ccc([N+](=O)[O-])cc2)c(C)c1Br` [Compound 16c, 1-(4-Nitrobenzyl)-6-((4-bromo-3,5-dimethyl-1H-pyrazol-1-yl)methyl)-4-oxo-1,4dihydroquinoline-3-carboxylic acid]: the melting point is 266 to 268 °C. The inhibition at 100 µg/mL on HIV-1 integrase is under 50%.
On to `Cc1nn(Cc2ccc3[nH]cc(C(=O)O)c(=O)c3c2)c(C)c1Cl` [Compound 11b, 6-((4-Chloro-3,5-dimethyl-1H-pyrazol-1-yl)methyl)-4-oxo-1,4-dihydroquinoline-3-carboxylic acid], for which the melting point lay within 263 to 265 °C. For the same compound, the inhibition at 100 µg/mL on HIV-1 integrase is under 50%.
On the same counts, the results for `Cc1cc(C)n(Cc2ccc3c(c2)c(=O)c(C(=O)O)cn3CC(O)CO)n1` (stereo not drawn) [Compound 12a, 1-(2,3-Dihydroxypropyl)-6-((3,5-dimethyl-1H-pyrazol-1-yl)methyl)-4-oxo-1,4-dihydroquinoline-3-carboxylic acid] are 187 to 189 °C and under 50%.
Compound `Cc1nn(Cc2ccc3c(c2)c(=O)c(C(=O)O)cn3Cc2ccc(F)cc2)c(C)c1Br` [Compound 15c, 1-(4-Fluorobenzyl)-6-((4-bromo-3,5-dimethyl-1H-pyrazol-1-yl)methyl)-4-oxo-1,4-dihydro-quinoline-3-carboxylic acid] showed a melting point of 255 to 257 °C. For the same compound, the inhibition at 100 µg/mL at HIV-1 integrase is under 50%.
For the compound `Cc1cc(C)n(Cc2ccc3c(c2)c(=O)c(C(=O)O)cn3Cc2ccc(F)cc2)n1` [Compound 15a, 1-(4-Fluorobenzyl)-6-((3,5-dimethyl-1H-pyrazol-1-yl)methyl)-4-oxo-1,4-dihydro-quinoline-3-carboxylic acid], the melting point fell in the range of 271 to 273 °C. On HIV-1 integrase, the inhibition at 100 µg/mL is under 50%.
In the case of `Cc1nn(Cc2ccc3c(c2)c(=O)c(C(=O)O)cn3CC(=O)O)c(C)c1Br` [Compound 13c, 1-(Carboxymethyl)-6-((4-bromo-3,5-dimethyl-1H-pyrazol-1-yl)methyl)-4-oxo-1,4-dihydro-quinoline-3-carboxylic acid], the melting point is 278 to 280 °C. Also, the inhibition at 100 µg/mL at HIV-1 integrase is under 50%.
